Earlier results on four compounds are cited in PMC9306982 (Journal of Food and Drug Analysis, 2019).

The conditions of data set [1]: compared with caffeoylquinic acids.
Data set [2] relates to xanthine oxidase. The note with it: for inhibitory activity against xanthine oxidase (in words): isolates from aerial part of Hyptis rhomboids.
Data set [3] concerns potassium oxonate-treated rat. The note with it: oral administration.

As to `O=C(O)/C=C/c1ccc(O)c(O)c1` [Compound 11, caffeic acid], the “bioavailability (in words)” value in data set [1] was “better”. Also, the “xanthine oxidase inhibitory activity (in words)” value in data set [2] is given as “moderate”.

For `COC(=O)C1(O)CC(O)C(OC(=O)C=Cc2ccc(O)c(O)c2)C(OC(=O)C=Cc2ccc(O)c(O)c2)C1` (centres unmarked) [methyl 4,5-dicaffeoylquinate], the “hypouricemic effect (in words)” value in data set [3] was “good”.

Regarding `O=C(/C=C/c1ccc(O)c(O)c1)O/C=C\c1ccc(O)c(O)c1` [netpetoidin B], the “inhibitory activity against xanthine oxidase (in words)” value in data set [2] was “good”.

For the compound epihyprhombin B, in data set [2], the “inhibitory activity against xanthine oxidase (in words)” value was “good”.
